Where two headings read alike, the source gives them in different places.
Experiments:
Test in all cases: MIC determination by two-fold serial dilution in 96-well microtiter plates
Assay type in all cases: cell-based
[1] = test system: Enterococcus faecalis (OG1RF)
Description: (§1) For the compounds above, respective minimum inhibitory concentration (MIC) values against the Gram-positive S. aureus, E. faecalis, Gram-negative E. coli and P. aeruginosa were determined, respectively, by standard methods. […] Cell viability was verified by serial dilution and plating on MH agar. Both aqueous and fresh media positive controls were performed for each trial. Overnight bacterial cultures of Staphylococcus aureus (SH1000), Enterococcus faecalis (OG1RF), Escherichia coli (MC4100), and Pseudomonas aeruginosa (PAO1-WT) were grown in Mueller-Hinton broth at 37° C., with all but E. faecalis under shaking Overnight cultures were diluted to approximately 10^6 cfu/mL as determined by OD measurement at 640 nm and plating on MH agar.
(§2) Each compound was serially diluted two-fold with water from 1 mM down to 1 μM yielding twelve dilutions per compound. In triplicate, 100 µL of each dilution were pipetted into the appropriate well of a 96-well microtiter plate, and then […] of overnight bacterial culture diluted to ca. 10^6 cfu/mL were inoculated into each well. Microtiter plates were incubated at 37° C. for 72 hours. Up to seven compounds were tested against one bacterial species at twelve decreasing concentrations per 96-well plate.

[2] = test system: Pseudomonas aeruginosa (PAO1-WT)
Description: as §1, §2

[3] = test system: Staphylococcus aureus (SH1000)
Description: as §1, §2

[4] = test system: Escherichia coli (MC4100); settings: for MIC E. coli: Table 2, trisamine compounds; for MIC: Escherichia coli
Description: as §1, §2

[5] = Table 2, trisamine compounds, read-out: MIC E faecalis
[6] = Table 2, trisamine compounds, read-out: MIC P aeruginosa
[7] = Table 2, trisamine compounds, read-out: MIC S. aureus
[8] = Enterococcus faecalis, Table 1, 37° C., 72 hours, read-out: MIC, Gram positive E. faecalis
[9] = Pseudomonas aeruginosa, PAO1, Table 1, 37° C., 72 hours, read-out: MIC, Gram negative P. aeruginosa
[10] = Staphylococcus aureus, Table 1, 37° C., 72 hours, read-out: MIC, Gram positive S. aureus
[11] = 72 h, read-out: MIC, Gram negative E. coli
[12] = Table 1, 37° C., 72 hours, read-out: MIC, Gram negative E. coli

SMILES	MIC [1, 8] [µM]	MIC [2, 9] [µM]	MIC [3, 10] [µM]	MIC [4, 11] [µM]	also measured
CCCCCCCCCC[N+](C)(C)CCN(C)CC[N+](C)(C)CCCCCCCCCC.[Br-].[Br-] [10, 2, 0, 2, 10]	–	–	–	–	MIC [1, 5]: 8 µM; MIC [2, 6]: 32 µM; MIC [3, 7]: 2 µM; MIC E. coli [4]: 8 µM
CCCCCCCCCCCC[N+](C)(C)CCN(C)CC[N+](C)(C)CCCCCCCCCCCC.[Br-].[Br-] [12, 2, 0, 2, 12]	–	–	–	–	MIC [1, 5]: 2 µM; MIC [2, 6]: 4 µM; MIC [3, 7]: 1 µM; MIC E. coli [4]: 1 µM
CCCCCCCCCCCCCC[N+](C)(C)CCN(C)CC[N+](C)(C)CCCCCCCCCCCCCC [14, 2, 0, 2, 14]	–	–	–	–	MIC ([1]; Enterococcus faecalis, Table 2, trisamine compounds, read-out: MIC E faecalis): 2 µM; MIC ([2]; Pseudomonas aeruginosa, PAO1, Table 2, trisamine compounds, read-out: MIC P aeruginosa): 32 µM; MIC ([3]; Staphylococcus aureus, Table 2, trisamine compounds, read-out: MIC S. aureus): 2 µM; MIC ([4]; read-out: MIC E. coli): 4 µM
CCCCCCCC[N+](C)(C)CC[N+](C)(C)CCCCCCCC [(8, 2, 8)]	500	500	32	250	–
CCCCCCCCCC[N+](C)(C)CCN(C)C [(10, 2, 0)]	250	250	63	–	MIC [4, 12]: 250 µM
CCCCCCCCCC[N+](C)(C)CC[N+](C)(C)CCCCCCCC [(10, 2, 8)]	63	125	8	63	–
CCCCCCCCCC[N+](C)(C)CC[N+](C)(C)CCCCCCCCCC [(10, 2, 10)]	8	8	2	16	–
CCCCCCCCCCC[N+](C)(C)CC[N+](C)(C)CCCCCCCCCC [(11, 2, 10)]	–	–	–	4	MIC ([1]; Enterococcus faecalis, 72 h, read-out: MIC, Gram positive E. faecalis): 4 µM; MIC ([2]; Pseudomonas aeruginosa, PAO1, 72 h, read-out: MIC, Gram negative P. aeruginosa): 4 µM; MIC ([3]; Staphylococcus aureus, 72 h, read-out: MIC, Gram positive S. aureus): 1 µM
CCCCCCCCCCCC[N+](C)(C)CCN(C)C [(12, 2, 0)]	63	250	32	–	MIC [4, 12]: 63 µM
CCCCCCCCCCCC[N+](C)(C)CC[N+](C)(C)CCCCCCCC [(12, 2, 8)]	4	4	1	4	–
CCCCCCCCCCCC[N+](C)(C)CC[N+](C)(C)CCCCCCCCCC [(12, 2, 10)]	2	2	1	2	–
CCCCCCCCCCCC[N+](C)(C)CC[N+](C)(C)CCCCCCCCCCCC [(12, 2, 12)]	1	4	1	2	–
CCCCCCCCCCCCCC[N+](C)(C)CCN(C)C [(14, 2, 0)]	8	125	2	–	MIC [4, 12]: 16 µM
CCCCCCCCCCCCCC[N+](C)(C)CC[N+](C)(C)CCCCCCCC [(14, 2, 8)]	2	4	1	2	–
CCCCCCCCCCCCCC[N+](C)(C)CC[N+](C)(C)CCCCCCCCCC [(14, 2, 10)]	1	4	4	2	–
CCCCCCCCCCCCCC[N+](C)(C)CC[N+](C)(C)CCCCCCCCCCCC [(14, 2, 12)]	2	8	1	2	–
CCCCCCCCCCCCCC[N+](C)(C)CC[N+](C)(C)CCCCCCCCCCCCCC [(14, 2, 14)]	2	32	4	4	–
CCCCCCCCCCCCCCCC[N+](C)(C)CCN(C)C [(16, 2, 0)]	16	16	1	–	MIC [4, 12]: 16 µM

SMILES	MIC [1, 8] [µM]	MIC [2, 9] [µM]	MIC [3, 10] [µM]	MIC [4, 11] [µM]	also measured
CCCCCCCCCCCCCCCC[N+](C)(C)CC[N+](C)(C)CCCCCCCC [(16, 2, 8)]	2	4	2	2	–
CCCCCCCCCCCCCCCC[N+](C)(C)CC[N+](C)(C)CCCCCCCCCC [(16, 2, 10)]	4	32	4	8	–
CCCCCCCCCCCCCCCC[N+](C)(C)CC[N+](C)(C)CCCCCCCCCCCC [(16, 2, 12)]	4	32	8	8	–
CCCCCCCCCCCCCCCC[N+](C)(C)CC[N+](C)(C)CCCCCCCCCCCCCC [(16, 2, 14)]	2	63	8	16	–
CCCCCCCCCCCCCCCC[N+](C)(C)CC[N+](C)(C)CCCCCCCCCCCCCCCC [(16, 2, 16)]	8	63	8	32	–
CCCCCCCCCCCCCCCCCC[N+](C)(C)CCN(C)C [(18, 2, 0)]	4	–	2	–	MIC ([2]; Table 1, 37° C., 72 hours, read-out: MIC, Gram negative P. aeruginosa): 63 µM; MIC [4, 12]: 63 µM
CCCCCCCCCCCCCCCCCC[N+](C)(C)CC[N+](C)(C)CCCCCCCC [(18, 2, 8)]	2	32	2	8	–
CCCCCCCCCCCCCCCCCC[N+](C)(C)CC[N+](C)(C)CCCCCCCCCC [(18, 2, 10)]	2	32	4	16	–
CCCCCCCCCCCCCCCCCC[N+](C)(C)CC[N+](C)(C)CCCCCCCCCCCC [(18, 2, 12)]	4	32	4	16	–
CCCCCCCCCCCCCCCCCC[N+](C)(C)CC[N+](C)(C)CCCCCCCCCCCCCC [(18, 2, 14)]	16	63	8	16	–
CCCCCCCCCCCCCCCCCC[N+](C)(C)CC[N+](C)(C)CCCCCCCCCCCCCCCC [(18, 2, 16)]	32	63	16	32	–
CCCCCCCCCCCCCCCCCC[N+](C)(C)CC[N+](C)(C)CCCCCCCCCCCCCCCCCC [(18, 2, 18)]	63	500	32	250	–
CCCCCCCCCCCCCCCCCCCC[N+](C)(C)CCN(C)C [(20, 2, 0)]	4	125	4	–	MIC [4, 12]: 63 µM
CCCCCCCCCCCCCCCCCCCC[N+](C)(C)CC[N+](C)(C)CCCCCCCC [(20, 2, 8)]	4	32	4	16	–
CCCCCCCCCCCCCCCCCCCC[N+](C)(C)CC[N+](C)(C)CCCCCCCCCC [(20, 2, 10)]	16	16	4	16	–
CCCCCCCCCCCCCCCCCCCC[N+](C)(C)CC[N+](C)(C)CCCCCCCCCCCC [(20, 2, 12)]	4	63	8	32	–
CCCCCCCCCCCCCCCCCCCC[N+](C)(C)CC[N+](C)(C)CCCCCCCCCCCCCC [(20, 2, 14)]	16	63	8	16	–
